Data: ChEMBL document CHEMBL1201862, “PubChem BioAssay data set” (2004)
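Step 1: Grow cells in 96-well plates. Step 2: Expose to compound for 48 hours at 5 concentrations. Step 3: Interpolate endpoints linearly; if unreached, use highest concentration. GI50 = concentration required for 50% inhibition of growth.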 Active and inactive are the calls of the source. Rule as the data show it: active = GI50 up to about 1.1 µM and inactive = higher.

Key:
Experiment in all cases: inhibition of tumour cell growth, NCI panel, 48 h
SF-268 = system: SF-268
KM12 = system: KM12
Hs-578T = system: Hs-578T
MDA-N = system: MDA-N
NCI-H226 = system: NCI-H226
EKVX = system: EKVX
UACC-62 = system: UACC-62
NCI-H522 = system: NCI-H522
HCT-15 = system: HCT-15
TK-10 = system: TK-10
MDA-MB-231 = system: MDA-MB-231
RPMI-8226 = system: RPMI-8226
NCI-H460 = system: NCI-H460
SK-MEL-2 = system: SK-MEL-2
IGROV-1 = system: IGROV-1
OVCAR-4 = system: OVCAR-4
SK-MEL-5 = system: SK-MEL-5
OVCAR-8 = system: OVCAR-8
HCC 2998 = system: HCC 2998
SNB-19 = system: SNB-19
HT-29 = system: HT-29
NCI/ADR-RES = system: NCI/ADR-RES
LOX IMVI = system: LOX IMVI
Malme-3M = system: Malme-3M
U-251 = system: U-251
MOLT-4 = system: MOLT-4
DU-145 = system: DU-145
MDA-MB-435 = system: MDA-MB-435
CCRF-CEM = system: CCRF-CEM
OVCAR-3 = system: OVCAR-3
786-0 = system: 786-0
HOP-92 = system: HOP-92
COLO 205 = system: COLO 205
BT-549 = system: BT-549
SW-620 = system: SW-620
HOP-62 = system: HOP-62
MCF7 = system: MCF7
SNB-75 = system: SNB-75
NCI-H23 = system: NCI-H23
UO-31 = system: UO-31
SN12C = system: SN12C
SR = system: SR
CAKI-1 = system: CAKI-1
PC-3 = system: PC-3
SF-539 = system: SF-539
UACC-257 = system: UACC-257
OVCAR-5 = system: OVCAR-5
T47D = system: T47D
SK-OV-3 = system: SK-OV-3
SK-MEL-28 = system: SK-MEL-28
RXF 393 = system: RXF 393
A549 = system: A549
SF-295 = system: SF-295
HL-60 = system: HL-60
M14 = system: M14
HCT-116 = system: HCT-116
A498 = system: A498
ACHN = system: ACHN
K562 = system: K562

**Q.** How did the GI50 (SF-268) turn out when `COc1ccc(C2OC(=O)c3ccc4ccccc4c32)c(C)c1` (stereo not drawn) was run?
**A.** 45.2 µM (inactive)

**Q.** And the GI50 (KM12)?
**A.** 5.87 µM (inactive)

**Q.** And the GI50 (Hs-578T)?
**A.** 10.2 µM (inactive)

**Q.** What about the GI50 (MDA-N) of the same compound?
**A.** 2 µM (inactive)

**Q.** And the GI50 (NCI-H226)?
**A.** 13.9 µM (inactive)

**Q.** And the GI50 (EKVX)?
**A.** 18.8 µM (inactive)

**Q.** What about the GI50 (UACC-62) of the same compound?
**A.** 6.93 µM (inactive)

**Q.** What about the GI50 (NCI-H522) of the same compound?
**A.** 4.42 µM (inactive)

**Q.** And the GI50 (HCT-15)?
**A.** 4.1 µM

**Q.** What about the GI50 (TK-10) of the same compound?
**A.** 15.2 µM (inactive)

**Q.** And the GI50 (MDA-MB-231)?
**A.** 6.12 µM (inactive)

**Q.** What about the GI50 (RPMI-8226) of the same compound?
**A.** 11.1 µM (inactive)

**Q.** What about the GI50 (NCI-H460) of the same compound?
**A.** 4.18 µM (inactive)

**Q.** And the GI50 (SK-MEL-2)?
**A.** 2.1 µM (inactive)

**Q.** And the GI50 (IGROV-1)?
**A.** 5.51 µM (inactive)

**Q.** And the GI50 (OVCAR-4)?
**A.** 19.6 µM (inactive)

**Q.** What about the GI50 (SK-MEL-5) of the same compound?
**A.** 3.54 µM (inactive)

**Q.** And the GI50 (OVCAR-8)?
**A.** 14.2 µM (inactive)

**Q.** And the GI50 (HCC 2998)?
**A.** 3.85 µM (inactive)

**Q.** And the GI50 (SNB-19)?
**A.** 14.7 µM (inactive)

**Q.** And the GI50 (HT-29)?
**A.** 3.78 µM (inactive)

**Q.** And the GI50 (NCI/ADR-RES)?
**A.** 2.37 µM (inactive)

**Q.** What about the GI50 (LOX IMVI) of the same compound?
**A.** 7.89 µM (inactive)

**Q.** And the GI50 (Malme-3M)?
**A.** 8.18 µM (inactive)

**Q.** What about the GI50 (U-251) of the same compound?
**A.** 4.86 µM (inactive)

**Q.** And the GI50 (MOLT-4)?
**A.** 7.73 µM (inactive)

**Q.** What about the GI50 (DU-145) of the same compound?
**A.** 22.2 µM (inactive)

**Q.** And the GI50 (MDA-MB-435)?
**A.** 2.36 µM (inactive)

**Q.** What about the GI50 (CCRF-CEM) of the same compound?
**A.** 22.4 µM (inactive)

**Q.** What about the GI50 (OVCAR-3) of the same compound?
**A.** 6.44 µM (inactive)

**Q.** And the GI50 (786-0)?
**A.** 12.7 µM (inactive)

**Q.** And the GI50 (HOP-92)?
**A.** 10.9 µM (inactive)

**Q.** And the GI50 (COLO 205)?
**A.** 4.36 µM (inactive)

**Q.** What about the GI50 (BT-549) of the same compound?
**A.** 19.5 µM (inactive)

**Q.** What about the GI50 (SW-620) of the same compound?
**A.** 3.96 µM (inactive)

**Q.** What about the GI50 (HOP-62) of the same compound?
**A.** 7.26 µM (inactive)

**Q.** What about the GI50 (MCF7) of the same compound?
**A.** 5.65 µM (inactive)

**Q.** What about the GI50 (SNB-75) of the same compound?
**A.** 6.97 µM (inactive)

**Q.** What about the GI50 (NCI-H23) of the same compound?
**A.** 9.53 µM (inactive)

**Q.** What about the GI50 (UO-31) of the same compound?
**A.** 8.97 µM (inactive)

**Q.** And the GI50 (SN12C)?
**A.** 10.1 µM (inactive)

**Q.** What about the GI50 (SR) of the same compound?
**A.** 3.86 µM (inactive)

**Q.** What about the GI50 (CAKI-1) of the same compound?
**A.** 13.3 µM (inactive)

**Q.** And the GI50 (PC-3)?
**A.** 9.08 µM (inactive)

**Q.** What about the GI50 (SF-539) of the same compound?
**A.** 12.2 µM (inactive)

**Q.** And the GI50 (UACC-257)?
**A.** 27.5 µM (inactive)

**Q.** And the GI50 (OVCAR-5)?
**A.** 19.9 µM (inactive)

**Q.** What about the GI50 (T47D) of the same compound?
**A.** 7.6 µM (inactive)

**Q.** And the GI50 (SK-OV-3)?
**A.** 7.82 µM (inactive)

**Q.** What about the GI50 (SK-MEL-28) of the same compound?
**A.** 11.9 µM (inactive)

**Q.** And the GI50 (RXF 393)?
**A.** 5.33 µM (inactive)

**Q.** What about the GI50 (A549) of the same compound?
**A.** 6.31 µM (inactive)

**Q.** What about the GI50 (SF-295) of the same compound?
**A.** 2.98 µM (inactive)

**Q.** What about the GI50 (HL-60) of the same compound?
**A.** 3.69 µM (inactive)

**Q.** What about the GI50 (M14) of the same compound?
**A.** 6.73 µM (inactive)

**Q.** And the GI50 (HCT-116)?
**A.** 4.93 µM (inactive)

**Q.** What about the GI50 (A498) of the same compound?
**A.** 7.41 µM (inactive)

**Q.** And the GI50 (ACHN)?
**A.** 20.6 µM (inactive)

**Q.** And the GI50 (K562)?
**A.** 3.55 µM (inactive)

**Q.** What does the source list for `COC(=O)C1=C(OC(=O)/C(=C/c2ccc(Cl)cc2Cl)c2ccc(Cl)cc2Cl)C(C(=O)OC)[C@@]2(O)[C@@H](C(=O)OC)[C@H](C)C[C@@H]1[C@@H]2C(=O)OC` (stereo partly drawn)?
**A.** GI50 (SF-268): > 100 µM (inactive); GI50 (KM12): > 100 µM (inactive); GI50 (Hs-578T): > 100 µM (inactive); GI50 (MDA-N): > 100 µM (inactive); GI50 (NCI-H226): > 100 µM (inactive); GI50 (EKVX): 47.8 µM (inactive); GI50 (UACC-62): 92.5 µM (inactive); GI50 (NCI-H522): 64.1 µM (inactive); GI50 (HCT-15): > 100 µM; GI50 (TK-10): > 100 µM (inactive); GI50 (MDA-MB-231): 40 µM (inactive); GI50 (RPMI-8226): > 100 µM (inactive); GI50 (NCI-H460): > 100 µM (inactive); GI50 (SK-MEL-2): > 100 µM (inactive); GI50 (IGROV-1): > 100 µM (inactive); GI50 (OVCAR-4): > 100 µM (inactive); GI50 (SK-MEL-5): > 100 µM (inactive); GI50 (OVCAR-8): 34.4 µM (inactive); GI50 (HCC 2998): > 100 µM (inactive); GI50 (SNB-19): > 100 µM (inactive); GI50 (HT-29): > 100 µM (inactive); GI50 (NCI/ADR-RES): > 100 µM (inactive); GI50 (LOX IMVI): > 100 µM (inactive); GI50 (Malme-3M): > 100 µM (inactive); GI50 (U-251): > 100 µM (inactive); GI50 (MOLT-4): > 100 µM (inactive); GI50 (DU-145): > 100 µM (inactive); GI50 (MDA-MB-435): > 100 µM (inactive); GI50 (CCRF-CEM): 88.5 µM (inactive); GI50 (OVCAR-3): > 100 µM (inactive); GI50 (786-0): > 100 µM (inactive); GI50 (HOP-92): 22.9 µM (inactive); GI50 (COLO 205): > 100 µM (inactive); GI50 (BT-549): > 100 µM (inactive); GI50 (SW-620): > 100 µM (inactive); GI50 (HOP-62): > 100 µM (inactive); GI50 (MCF7): > 100 µM (inactive); GI50 (SNB-75): > 100 µM (inactive); GI50 (NCI-H23): > 100 µM (inactive); GI50 (UO-31): > 100 µM (inactive); GI50 (SN12C): > 100 µM (inactive); GI50 (SR): > 100 µM (inactive); GI50 (CAKI-1): > 100 µM (inactive); GI50 (PC-3): 7.1 µM (inactive); GI50 (SF-539): > 100 µM (inactive); GI50 (UACC-257): > 100 µM (inactive); GI50 (OVCAR-5): > 100 µM (inactive); GI50 (T47D): > 100 µM (inactive); GI50 (SK-OV-3): > 100 µM (inactive); GI50 (SK-MEL-28): > 100 µM (inactive); GI50 (RXF 393): 61.8 µM (inactive); GI50 (A549): 13.5 µM (inactive); GI50 (SF-295): 16.5 µM (inactive); GI50 (HL-60): > 100 µM (inactive); GI50 (M14): > 100 µM (inactive); GI50 (HCT-116): > 100 µM (inactive); GI50 (A498): > 100 µM (inactive); GI50 (ACHN): > 100 µM (inactive); GI50 (K562): > 100 µM (inactive)
